According to patent publication US4057684A, “Alkyl amino-glucopyranoside derivative and process for producing the same” (priority 1975, dated 1977):
Several values for one entry are separate records, joined by “and”; a condition that tells them apart may be missing. Equal values may be shown once. Entries after “also recorded” stand apart in the source; their conditions may differ. Read-outs that look alike come from different tables or passages of the source.

How the values were obtained:
[1] = peripheral white blood cell counts (bone marrow toxicity) and survival in normal male ICR mice; format: in vivo, mouse (ICR)
Description: Such peripheral white blood cell counts were performed as follows: Normal male ICR mice were used in groups of tens and the test compounds for treatment were made into their respective solutions. 2MCαG and 6MCαG were dissolved in physiological saline solutions, while CCNU and GCNU were suspended in 0.5% CMC aqueous solution and 50% PEG aqueous solution, respectively. A single administration at volume of 1 ml per 100 g body weight of animal (0.1 ml/10 g) was given intraperitoneally, and the peripheral white blood cell counts were performed 3, 8 and 15 days after administration of the test compounds.

[2] = cited from earlier work
[3] = cited from earlier work; for bone marrow toxicity: in vivo
tumor = conditions: in vivo; cited from earlier work
[4] = cited from earlier work; remark: listed apart in the source
[5] = system: adenocarcinoma-755 (Ca-755); assay: antitumor effect against adenocarcinoma-755 (Ca-755) implanted in mice; format: in vivo, mouse (BDF1)
Source text: (§1) Results of pharmacological studies for amino-glucopyranoside [I] according to the invention are described below. The test compounds which were used included methyl N-carbamyl-N'-(2-chloroethyl)-N'-nitroso-2-amino-2-deoxy-α-D-glucopyranoside and methyl N-carbamyl-N'-(2-chloroethyl)-N'-nitroso-6-amino-6-deoxy-α-D-glucopyranoside (hereinafter abbreviated to 2MCαG and 6MCαG, respectively). The control compounds which were employed were 1-(2-chloroethyl)-3-cyclohexyl-1-nitrosoourea (hereinafter abbreviated to CCNU), which had been widely applied as a control compound in such a pharmacological test of the streptozotocin derivatives, and GCNU referred to previously. The tumor systems which were used were leukemia L-1210, Nakahara-Fukuoka sarcoma, adenocarcinoma-755, ascites sarcoma 180 and Ehrlich ascites carcinoma (hereinafter abbreviated to L-1210, NFS, Ca-755, S-180A and EAC, respectively), and the antitumor activities were determined by a procedure of the National Cancer Center, Tokyo (A. Hoshi et al.: Farumashia 9, 464(1973)). The test animals which were used were ICR and BDF1 mice.
(§2) ^a Treatment was initiated 24 hr after implantation of tumor (day 1):
(§3) D1~5 = qd, day 1~5; D1 = day 1 only.
(§4) ^b T/C is expressed as the tumor weight ratio in solid tumors or tota
(§5) packed cell volume ratio in ascites tumors of treated/control.

[6] = acute toxicity (LD50) in mice; format: in vivo, mouse (ICR); conditions: mouse, in vivo, ICR mice
[7] = blood sugar level / diabetogenic activity; format: in vivo, rat (male Wister)
[8] = system: solid as well as ascites tumor systems; assay: antitumor activity in the tumor systems (overall); format: in vivo, mouse; conditions: mouse, in vivo
Source text: as §1

bacteria = assay: antibacterial activity, broth dilution method
leukemia L-1210 = assay: increase in life span and survival of leukemia L-1210 implanted mice; format: in vivo, mouse (BDF1)
Source text: as §1, §2, §3
^d % increase in life span (mean survival time) over controls.
^e 60 days survivors/total in treated group.

[9] = system: ascites sarcoma 180 (S-180A); assay: antitumor effect against ascites sarcoma 180 (S-180A) implanted in mice; format: in vivo, mouse (ICR)
Source text: as §1, §2, §3, §4, §5

[10] = system: Ehrlich ascites carcinoma (EAC); assay: antitumor effect against Ehrlich ascites carcinoma (EAC) implanted in mice; format: in vivo, mouse (ICR)
Source text: as §1, §2, §3, §4, §5

[11] = system: Nakahara-Fukuoka sarcoma (NFS); assay: antitumor effect against Nakahara-Fukuoka sarcoma (NFS) implanted in mice; format: in vivo, mouse (ICR)
Source text: as §1, §2, §3, §4, §5

[12] = 3.2 mg/kg/day ip D1~5, BDF1 mice
[13] = 6.3 mg/kg/day ip D1~5, BDF1 mice
[14] = 15.0 mg/kg/day ip D1~5, BDF1 mice
[15] = 3.2 mg/kg/day ip D1~5, listed as 2MCaαG
[16] = 3.2 mg/kg/day ip D1~5, ICR mice
[17] = 3.2 mg/kg/day ip, 5 successive days
[18] = 12.5 mg/kg/day ip D1~5, ICR mice
[19] = 6.3 mg/kg/day ip D1~5, ICR mice
[20] = 15.0 mg/kg/day ip D1~5, ICR mice
[21] = 20.0 mg/kg/day ip D1~5, ICR mice

CC(=O)OC[C@H]1OC(OC(C)=O)[C@H](NC(=O)N(CCCl)N=O)[C@@H](OC(C)=O)[C@@H]1OC(C)=O (stereo partly shown) [GCNU, 3-(tetraacetylglucopyranos-2-yl)-1-(2-chloroethyl)-1-nitrosourea, reference compound]
Death rate (death/used) ([1]; 10 mg/kg ip single): 0/10
Average count of WBC ([1]; 10 mg/kg ip single, day 3): 83.1±4.5 x 10^2 WBC/mm^3
Average count of WBC ([1]; 10 mg/kg ip single, day 8): 140.3±15.7 x 10^2 WBC/mm^3
Average count of WBC ([1]; 10 mg/kg ip single, day 15): 116.0±10.0 x 10^2 WBC/mm^3
Death rate (death/used) ([1]; 20 mg/kg ip single): 6/10
Average count of WBC ([1]; 20 mg/kg ip single, day 3): 60.4±3.6 x 10^2 WBC/mm^3
Average count of WBC ([1]; 20 mg/kg ip single, day 8): 131.4±17.4 x 10^2 WBC/mm^3
Average count of WBC ([1]; 20 mg/kg ip single, day 15): 106.0±9.0 x 10^2 WBC/mm^3
Death rate (death/used) ([1]; 40 mg/kg ip single): 10/10
Average count of WBC ([1]; 40 mg/kg ip single, day 3): 33.2±3.3 x 10^2 WBC/mm^3
Death rate (death/used) ([1]; 60 mg/kg ip single): 10/10
Average count of WBC ([1]; 60 mg/kg ip single, day 3): 26.5±3.5 x 10^2 WBC/mm^3
diabetogenic activity ([2]; test animals): nondiabetogenic activity
bone marrow toxicity [3]: reduced bone marrow toxicity
leukopenia ([3]; single ip, 15 mg/kg): without causing leukopenia

CN(N=O)C(=O)N[C@H]1C(O)O[C@H](CO)[C@@H](O)[C@@H]1O (stereo partly drawn) [streptozotocin, N-carbamyl-N'-methyl-N'-nitroso-2-amino-2-deoxy-D-glucopyranose]
diabetogenic activity ([2]; in vivo): diabetogenic
antitumor activity (tumor): exhibits an antitumor activity

O=NN(CCCl)C(=O)N[C@H]1C(O)O[C@H](CO)[C@@H](O)[C@@H]1O (stereo partly drawn) [2-[3-(2-chloroethyl)-3-nitrosoureido]-2-deoxy-D-glucopyranose]
water solubility [4]: water-soluble
diabetogenic activity ([2]; test animals): diabetogenic
antitumor activity (tumor): improved antitumor activity
bone marrow toxicity [3]: low bone marrow toxicity

CO[C@H]1O[C@H](CO)[C@@H](O)[C@H](O)[C@H]1NC(=O)N(CCCl)N=O [Example 2MCαG, methyl N-carbamyl-N'-(2-chloroethyl)-N'-nitroso-2-amino-2-deoxy-α-D-glucopyranoside]
Activity [5, 12]: ++ (50~21% = ++)
T/C [5, 12]: 22.4%
Activity [5, 13]: +++ (20~0% = +++)
T/C [5, 13]: 9.6%
T/C ([5]; 12.5 mg/kg/day ip D1~5, BDF1 mice): 3.3%
Activity [5, 14]: Toxic
T/C [5, 14]: 0.3%
died/used [5, 14]: 6/6
antitumor effect compared with CCNU ([5]; ip, 5 successive days): more effective than CCNU
Death rate (death/used) ([1]; 10 mg/kg ip single): 0/10
Average count of WBC ([1]; 10 mg/kg ip single, day 3): 74.0±4.6 x 10^2 WBC/mm^3
Average count of WBC ([1]; 10 mg/kg ip single, day 8): 105.6±4.5 x 10^2 WBC/mm^3
Average count of WBC ([1]; 10 mg/kg ip single, day 15): 131.8±5.4 x 10^2 WBC/mm^3
Death rate (death/used) ([1]; 20 mg/kg ip single): 2/10
Average count of WBC ([1]; 20 mg/kg ip single, day 3): 46.3±9.5 x 10^2 WBC/mm^3
Average count of WBC ([1]; 20 mg/kg ip single, day 8): 101.0±16.5 x 10^2 WBC/mm^3
Average count of WBC ([1]; 20 mg/kg ip single, day 15): 129.4±20.1 x 10^2 WBC/mm^3
Death rate (death/used) ([1]; 40 mg/kg ip single): 10/10
Average count of WBC ([1]; 40 mg/kg ip single, day 3): 30.8±2.8 x 10^2 WBC/mm^3
Death rate (death/used) ([1]; 60 mg/kg ip single): 10/10
Average count of WBC ([1]; 60 mg/kg ip single, day 3): 35.4±2.9 x 10^2 WBC/mm^3
Death rate (death/used) ([1]; 80 mg/kg ip single): 10/10
Average count of WBC ([1]; 80 mg/kg ip single, day 3): 32.0±3.8 x 10^2 WBC/mm^3
incidence of leukopenia ([1]; LD10 doses): comparatively mild with rapid return to pretreatment levels
bone marrow toxicity ([1]; mouse, in vivo): improved bone marrow toxicity
bone marrow toxicity compared with CCNU ([1]; mouse, in vivo): less toxic
bone marrow toxicity compared with GCNU ([1]; mouse, in vivo): equivalent values as GCNU
LD50 ([6]; 5 doses, qd): 16 mg/kg
LD50 ([6]; single dose): 48 mg/kg
blood sugar level ([7]; one-month administration, qd, day 1-30, male Wister rat, glucose oxidase method): neither elevation nor depression tendencies
diabetogenic activity ([7]; rat, in vivo): free from diabetogenic
antitumor activity [8]: activity against solid as well as ascites tumor systems
antibacterial activity (bacteria): without any antibacterial activities; also recorded: free from diabetogenic and antibacterial activities
ILS (leukemia L-1210; 1.0 mg/kg/day ip D1~5): 48%
Survivors (60 days survivors/total) (leukemia L-1210; 1.0 mg/kg/day ip D1~5): 0/6
ILS (leukemia L-1210; 2.0 mg/kg/day ip D1~5): > 249%
Survivors (60 days survivors/total) (leukemia L-1210; 2.0 mg/kg/day ip D1~5): 1/6
ILS (leukemia L-1210; 2.0 mg/kg/day po D1~5): > 143%
Survivors (60 days survivors/total) (leukemia L-1210; 2.0 mg/kg/day po D1~5): 1/6
ILS (leukemia L-1210; 3.2 mg/kg/day ip D1~5): 394%
Survivors (60 days survivors/total) (leukemia L-1210; 3.2 mg/kg/day ip D1~5): 3 out of 6
ILS (leukemia L-1210; [15]): > 394%
Survivors (60 days survivors/total) (leukemia L-1210; [15]): 3/6
ILS (leukemia L-1210; 3.2 mg/kg/day po D1~5): > 141%
Survivors (60 days survivors/total) (leukemia L-1210; 3.2 mg/kg/day po D1~5): 1/6
ILS (leukemia L-1210; 4.0 mg/kg/day ip D1~5): > 349%
Survivors (60 days survivors/total) (leukemia L-1210; 4.0 mg/kg/day ip D1~5): 2/6
ILS (leukemia L-1210; 6.3 mg/kg ip D1 only): 128%
Survivors (60 days survivors/total) (leukemia L-1210; 6.3 mg/kg ip D1 only): 0/6
ILS (leukemia L-1210; 6.3 mg/kg/day ip D1~5): > 198%
Survivors (60 days survivors/total) (leukemia L-1210; 6.3 mg/kg/day ip D1~5): 1/6
ILS (leukemia L-1210; 6.3 mg/kg/day po D1~5): 343% and > 343%
Survivors (60 days survivors/total) (leukemia L-1210; 6.3 mg/kg/day po D1~5): 2 out of 6 and 2/6
ILS (leukemia L-1210; 8.0 mg/kg ip D1 only): > 432%
Survivors (60 days survivors/total) (leukemia L-1210; 8.0 mg/kg ip D1 only): 3/6
ILS (leukemia L-1210; 10.0 mg/kg ip D1 only): > 717%
Survivors (60 days survivors/total) (leukemia L-1210; 10.0 mg/kg ip D1 only): 6/6
ILS (leukemia L-1210; 10.0 mg/kg/day ip D1~5): > 190%
Survivors (60 days survivors/total) (leukemia L-1210; 10.0 mg/kg/day ip D1~5): 1/6
ILS (leukemia L-1210; 12.5 mg/kg/day ip D1~5): > 160%
Survivors (60 days survivors/total) (leukemia L-1210; 12.5 mg/kg/day ip D1~5): 1/6
ILS (leukemia L-1210; 12.5 mg/kg/day po D1~5): 211%
Survivors (60 days survivors/total) (leukemia L-1210; 12.5 mg/kg/day po D1~5): 0/6
ILS (leukemia L-1210; 20.0 mg/kg ip D1 only): > 717%
Survivors (60 days survivors/total) (leukemia L-1210; 20.0 mg/kg ip D1 only): 6/6
ILS (leukemia L-1210; 20.0 mg/kg/day ip D1~5): 58%
Survivors (60 days survivors/total) (leukemia L-1210; 20.0 mg/kg/day ip D1~5): 0/6
ILS (leukemia L-1210; 25.0 mg/kg ip D1 only): > 539%
Survivors (60 days survivors/total) (leukemia L-1210; 25.0 mg/kg ip D1 only): > 4/6
single dose compared with five dose schedule (leukemia L-1210; ip): might be more effective than a five dose schedule
activity against L-1210 compared with CCNU and GCNU (leukemia L-1210; mouse, in vivo): more active against L-1210
ILS (leukemia L-1210; single 10-20 mg/kg ip): 717%
animals survived (leukemia L-1210; single 10-20 mg/kg ip): all 6 animals survived
Activity [9, 16]: +++ (10~0% 10~0% = +++)
T/C [9, 16]: 0%
accumulation of ascites tumor cells [9, 17]: no accumulation of ascites tumor cells was observable
T/C [9, 18]: 0%
Activity [10, 16]: +++ (10~0% 10~0% = +++)
T/C [10, 16]: 0%
accumulation of ascites tumor cells [10, 17]: no accumulation of ascites tumor cells was observable
T/C [10, 18]: 0%
Activity [11, 16]: - (100~71% = -)
T/C [11, 16]: 86.1%
Activity [11, 19]: + (70~51% = +)
T/C [11, 19]: 55.2%
T/C [11, 18]: 44.3%
Activity [11, 20]: ++ (50~21% = ++)
T/C [11, 20]: 29.2%
Activity [11, 21]: Toxic
died/used [11, 21]: 6/6
antitumor effect compared with CCNU ([11]; ip, 5 successive days): more effective than CCNU
